The subject of the assay is Vaccinia virus. As to the kind of experiment: Antiviral activity against Vaccinia virus Copenhagen in HFF cells assessed as reduction in cytopathogenicity. The class given is functional, organism-based. As to conditions: Orthopoxvirus vaccinia. A general note: Cytopathic effects are the visible damage that an infection or toxin causes in cultured cells.

In general, EC50 refers to the midpoint of the concentration-response curve.

In the case of `CC(=O)OC[C@H]1O[C@@H](n2cc(/C=C3\C(=O)N(c4ccccc4)N=C3C)c(=O)[nH]c2=O)C[C@@H]1OC(C)=O`, the EC50 was determined as 32 µM.

Values taken from ChEMBL document CHEMBL1147827, “A pyrimidine-pyrazolone nucleoside chimera with potent in vitro anti-orthopoxvirus activity” (Bioorg Med Chem Lett, 2006).
